Patent publication US20260297060A1, “COMPOUNDS FOR THE DEGRADATION OF MUTANT BRAF” (C4 THERAPEUTICS, INC., priority 2023, published 2026)
Like-named read-outs stand apart in the source and are kept apart here.

Tests used:
[1] = test system: A375 human melanoma xenografts; assay: Example 9 efficacy study Part II in A375 human melanoma xenografts (tumor volume, T/C, TGI); assay type: in vivo, BALB/c nude mice; details: 10 mg/kg, p.o., BID × 14 days; for Tumor Size on PG-D14: Mean ± SEM; for TGI (Tumor Growth Inhibition): PG-D14; for T/C: PG-D14, treated/control average tumor volume
Method: (§1) For efficacy study Part II, agents were tested in the A375 human melanoma xenografts model. Compound 133, Compound 144 and Compound 198 were administered to BALB/c nude mice bearing A375 xenografts from day 0 and dosed twice a day (BID) for 14 days. Compound 133, Compound 144 and Compound 198 were dosed at 10 mg/kg via p.o..
The A375 tumor cells were maintained in vitro in DMEM medium supplemented with […] and 1% Penicillin-Streptomycin at 37° C. in an atmosphere of 5% CO2 in air. The tumor cells were routinely subcultured twice weekly. The cells growing in an exponential growth phase were harvested and counted for tumor inoculation.
Each mouse was inoculated subcutaneously at the right flank with A375 cells (5×10^6) in 0.2 mL of PBS supplemented with Matrigel (PBS: Matrigel=1:1) for tumor development. Animals were grouped for the treatment when the average tumor volume reached 243 mm^3 for efficacy study part I and 413 mm^3 for the PK and PD study part I on day 15, and 271 mm^3 for efficacy part II and 443 mm^3 for the PK and PD part II on day 18, and 463 mm^3 for the PK and PD study part III on day 21. The test articles administration and the animal numbers in each group are shown in the above experimental tables.
Prior to the onset of drug treatment, mice were measured for tumor size in two dimensions using a caliper, and the tumor volume (mm^3) was calculated using formula V=0.5 a×b^2 where a and b are the long and short diameters of the tumor in mm, respectively. Mice were randomized into different treatment groups based on the tumor volume.
The major endpoint was to see if the tumor growth could be delayed or mice could be cured. The tumor size was then used for calculations of T/C value. The T/C value (in percent) is an indication of antitumor effectiveness; T and C are the mean volumes of the treated and control groups, respectively on specified day.
TGI was calculated for each group using the formula: TGI (%)=[1−(Ti−T0)/(Ci−C0)]×100; Ti is the average tumor volume of a treatment group on a given day, To is the average tumor volume of the treatment group on the day of treatment start, Ci is the average tumor volume of the vehicle control group on the same day with Ti, and C0 is the average tumor volume of the vehicle group on the day of treatment start.

[2] = Example 9 pharmacokinetics assay for efficacy study Part I and II (plasma, liver); assay type: in vivo, BALB/c nude mice; details: mouse, po, 10 mg/kg, p.o., BID × 14 days, 6 h following treatment, ± SEM
Method: For efficacy study Part I, agents were tested in the A375 human melanoma xenografts. Compound 218 and Compound 157 were administered to BALB/c nude mice bearing A375 xenografts from day 0 and dosed twice a day (BID) for 14 days. Compound 218 and Compound 157 were dosed at 10 mg/kg via p.o.. Dabrafenib was administered from day 1 daily (QD) for 14 days and dosed at 100 mg/kg via p.o..
as §1
The plasma samples were collected at predetermined time points for PK analysis. The mice were euthanized at predetermined time points post the treatment. The blood samples were collected into the 1.5 mL Eppendorf tubes containing 15 μL of 0.5 M EDTA-K2. And then the anticoagulant blood samples were centrifuged at 2,500 g at 4° C. for 15 minutes. The plasma samples were separated into 2 aliquots. The 1st was used for PK analysis, and the 2nd served as backup. The samples were stored at −80° C. before bioanalysis.
Liver samples were collected at predetermined time points for PK analysis. The left lobe of the liver was dissected out and split into 2 parts. The 1st part was used for PK analysis and the 2nd part served as the backup for the study. The samples were transferred into pre-labeled tubes and quickly froze in liquid nitrogen within 2 minutes after dissection. The samples were stored at −80° C. before bioanalysis.
The harvested plasma and liver samples were processed for pharmacokinetics analysis by LC-MS/MS with a concentration range of 1.00-1,000 ng/mL for Dabrafenib in plasma and liver homogenate, 10.0-10,000 ng/mL for Compound 218, Compound 157, Compound 133, Compound 144 and Compound 198 in plasma and liver homogenate.

[3] = liver, read-out: Mean Concentration in Liver
[4] = plasma, read-out: Mean Concentration in Plasma

SMILES | Tumor Volume Trace Over Time ([1]; Day 0, Mean ± SEM) [mm^3] | Tumor Volume Trace Over Time ([1]; Day 4, Mean ± SEM) [mm^3] | Tumor Volume Trace Over Time ([1]; Day 7, Mean ± SEM) [mm^3] | Tumor Volume Trace Over Time ([1]; Day 11, Mean ± SEM) [mm^3] | Tumor Volume Trace Over Time ([1]; Day 14, Mean ± SEM) [mm^3] | Tumor Size on PG-D14 [1] [mm^3] | TGI (Tumor Growth Inhibition) [1] [%] | T/C [1] [%] | concentration at 6 h [2, 3] [ng/g] | concentration at 6 h [2, 4] [ng/mL]
CO[C@@H]1CCN(S(=O)(=O)Nc2ccc(F)c(Oc3ccc4ncn([C@H]5COC6(CCN(C7CC8(C7)CN(c7cc9c(cc7F)c(N7CCC(=O)NC7=O)nn9C)C8)CC6)C5)c(=O)c4c3)c2C#N)C1 [Compound 144, (3R)-N-[2-cyano-3-[3-[(3R)-8-[2-[3-(2,4-dioxohexahydropyrimidin-1-yl)-5-fluoro-1-methyl-indazol-6-yl]-2-azaspiro[3.3]heptan-6-yl]-1-oxa-8-azaspiro[4.5]decan-3-yl]-4-oxo-quinazolin-6-yl]oxy-4-fluoro-phenyl]-3-methoxy-pyrrolidine-1-sulfonamide] | 271 | 167 | 79 | 51 | 28 | 28 ± 5 | 125.70 | 2.27 | 2470 ± 252 | 14700 ± 2220
CCN(C)S(=O)(=O)Nc1ccc(F)c(Oc2ccc3ncn(C4CC5(CCN(C6CC7(CCN(c8cc9c(cc8F)c(N8CCC(=O)NC8=O)nn9C)CC7)C6)CC5)C4)c(=O)c3c2)c1C#N (stereo not drawn) [Compound 198, 6-[2-cyano-3-[[ethyl(methyl)sulfamoyl]amino]-6-fluoro-phenoxy]-3-[7-[7-[3-(2,4-dioxohexahydropyrimidin-1-yl)-5-fluoro-1-methyl-indazol-6-yl]-7-azaspiro[3.5]nonan-2-yl]-7-azaspiro[3.5]nonan-2-yl]-4-oxo-quinazoline] | 271 | 192 | 93 | 60 | 58 | 58 ± 13 | 122.45 | 4.79 | 3320 ± 479 | 7640 ± 799
Cn1nc(N2CCC(=O)NC2=O)c2cc(F)c(N3CC4(CC(N5CCC6(CC5)C[C@@H](n5cnc7ccc(Oc8c(F)ccc(NS(=O)(=O)N9CC[C@@H](F)C9)c8C#N)cc7c5=O)CO6)C4)C3)cc21 [Compound 133, (3R)-N-[2-cyano-3-[3-[(3R)-8-[2-[3-(2,4-dioxohexahydropyrimidin-1-yl)-5-fluoro-1-methyl-indazol-6-yl]-2-azaspiro[3.3]heptan-6-yl]-1-oxa-8-azaspiro[4.5]decan-3-yl]-4-oxo-quinazolin-6-yl]oxy-4-fluoro-phenyl]-3-fluoro-pyrrolidine-1-sulfonamide] | 271 | 193 | 99 | 71 | 32 | 32 ± 7 | 125.20 | 2.65 | 1910 ± 169 | 5070 ± 270
